Common to all, as to type: cell-based
Assay [1] concerns the target T1, cystic fibrosis transmembrane conductance regulator (CFTR) (Mus musculus, UniProt P26361). Description: whole-cell patch clamp of native Cl- current in mouse sperm. The following applies: read-out: % inhibition of db-cAMP-stimulated current (at 5 μM). Background: The patch-clamp technique gives a direct electrical read-out from membranes.
For assay [2], the target named is T1, cystic fibrosis transmembrane conductance regulator (CFTR).
For assay [3] the target is unchanged. Description: whole-cell patch clamp. The following applies: read-out: % stimulation at 20 μM.

T1 sequence (P26361 whole entry): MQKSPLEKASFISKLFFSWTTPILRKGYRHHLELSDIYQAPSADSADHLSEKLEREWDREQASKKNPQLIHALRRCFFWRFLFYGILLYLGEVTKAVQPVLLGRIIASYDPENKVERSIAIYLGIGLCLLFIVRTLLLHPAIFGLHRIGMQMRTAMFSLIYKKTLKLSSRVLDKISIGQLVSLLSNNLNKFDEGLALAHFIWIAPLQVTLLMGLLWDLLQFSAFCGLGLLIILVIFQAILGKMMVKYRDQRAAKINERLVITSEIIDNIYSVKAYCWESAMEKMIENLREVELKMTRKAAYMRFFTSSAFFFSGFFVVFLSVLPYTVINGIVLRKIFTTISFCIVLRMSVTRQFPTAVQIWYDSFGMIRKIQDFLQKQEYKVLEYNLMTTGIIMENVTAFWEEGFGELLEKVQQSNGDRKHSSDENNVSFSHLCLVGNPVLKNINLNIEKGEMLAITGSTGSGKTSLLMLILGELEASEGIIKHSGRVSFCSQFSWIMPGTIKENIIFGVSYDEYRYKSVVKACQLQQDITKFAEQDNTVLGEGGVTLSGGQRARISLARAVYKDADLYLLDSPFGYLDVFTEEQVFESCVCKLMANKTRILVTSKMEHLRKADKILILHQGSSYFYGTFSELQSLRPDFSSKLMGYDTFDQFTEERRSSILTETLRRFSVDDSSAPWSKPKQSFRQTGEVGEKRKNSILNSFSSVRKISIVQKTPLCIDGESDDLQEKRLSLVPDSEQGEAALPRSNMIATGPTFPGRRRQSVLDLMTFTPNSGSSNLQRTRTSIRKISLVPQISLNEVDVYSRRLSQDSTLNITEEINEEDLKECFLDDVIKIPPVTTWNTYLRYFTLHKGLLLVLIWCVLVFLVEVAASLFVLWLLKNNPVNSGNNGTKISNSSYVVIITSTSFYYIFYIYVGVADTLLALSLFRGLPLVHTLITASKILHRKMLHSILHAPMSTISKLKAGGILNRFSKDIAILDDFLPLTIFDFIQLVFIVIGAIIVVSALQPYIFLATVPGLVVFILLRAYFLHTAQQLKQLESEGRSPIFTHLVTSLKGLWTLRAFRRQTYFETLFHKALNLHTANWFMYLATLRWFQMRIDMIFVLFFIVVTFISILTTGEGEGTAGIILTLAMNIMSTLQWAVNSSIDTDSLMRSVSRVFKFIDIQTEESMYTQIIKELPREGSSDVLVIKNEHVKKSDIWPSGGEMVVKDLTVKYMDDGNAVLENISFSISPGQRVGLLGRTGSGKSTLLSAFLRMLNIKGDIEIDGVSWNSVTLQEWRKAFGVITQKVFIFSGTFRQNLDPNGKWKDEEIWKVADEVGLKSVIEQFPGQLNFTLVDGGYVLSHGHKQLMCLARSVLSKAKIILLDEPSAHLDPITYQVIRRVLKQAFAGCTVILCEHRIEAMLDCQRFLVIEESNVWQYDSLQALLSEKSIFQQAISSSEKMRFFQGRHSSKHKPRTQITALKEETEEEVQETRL

The term inhibition denotes the share of the control response that was lost under treatment. Take `O=C(O)c1ccc(/C=C2\SC(=S)N(c3cccc(C(F)(F)F)c3)C2=O)cc1` [CFTRinh-172, 3-[(3-trifluoromethyl)phenyl]-5-[(4 carboxyphenyl)methylene]-2-thioxo-4thiazolidinone]: in assay [1], the inhibition at 5 µM worked out at 60%. As a reminder, the IC50 is the concentration needed to halve the response being measured. A low value points to greater potency. `O=C(O)c1ccccc1Nc1ccccc1` [DPC]: the IC50 in assay [2] was ~175 µM. Consider `O=c1c(-c2ccc(O)cc2)coc2cc(O)cc(O)c12` [genistein], for which, in assay [3], the activation at 20 µM came out at 54 ± 0.5%.

(Values after PMC4076061 (Journal of cellular physiology, 2013).)
